Experimental data from paper PMC6469177, “[^177Lu]Lu-PSMA-617 Salivary Gland Uptake Characterized by Quantitative In Vitro Autoradiography” (Pharmaceuticals, 2019).

Tests used:
[1] = target: T1, prostate-specific membrane antigen (PSMA) (Sus scrofa, UniProt O77564); assay: radioligand competition with […]Lu-PSMA-617, autoradiography on pig salivary gland tissue
T1 construct: gene FOLH1; pig salivary gland tissue cryosections

[2] = target: T1, prostate-specific membrane antigen (PSMA); assay: single-concentration ([…]) blocking of […]Lu-PSMA-617 binding, autoradiography
[3] = target: T2, prostate-specific membrane antigen (PSMA) (Homo sapiens, UniProt Q04609); assay: blocking of […]Lu-PSMA-617 binding with […] 2-PMPA, autoradiography
T2 construct: gene FOLH1
T2 sequence (Q04609 whole entry): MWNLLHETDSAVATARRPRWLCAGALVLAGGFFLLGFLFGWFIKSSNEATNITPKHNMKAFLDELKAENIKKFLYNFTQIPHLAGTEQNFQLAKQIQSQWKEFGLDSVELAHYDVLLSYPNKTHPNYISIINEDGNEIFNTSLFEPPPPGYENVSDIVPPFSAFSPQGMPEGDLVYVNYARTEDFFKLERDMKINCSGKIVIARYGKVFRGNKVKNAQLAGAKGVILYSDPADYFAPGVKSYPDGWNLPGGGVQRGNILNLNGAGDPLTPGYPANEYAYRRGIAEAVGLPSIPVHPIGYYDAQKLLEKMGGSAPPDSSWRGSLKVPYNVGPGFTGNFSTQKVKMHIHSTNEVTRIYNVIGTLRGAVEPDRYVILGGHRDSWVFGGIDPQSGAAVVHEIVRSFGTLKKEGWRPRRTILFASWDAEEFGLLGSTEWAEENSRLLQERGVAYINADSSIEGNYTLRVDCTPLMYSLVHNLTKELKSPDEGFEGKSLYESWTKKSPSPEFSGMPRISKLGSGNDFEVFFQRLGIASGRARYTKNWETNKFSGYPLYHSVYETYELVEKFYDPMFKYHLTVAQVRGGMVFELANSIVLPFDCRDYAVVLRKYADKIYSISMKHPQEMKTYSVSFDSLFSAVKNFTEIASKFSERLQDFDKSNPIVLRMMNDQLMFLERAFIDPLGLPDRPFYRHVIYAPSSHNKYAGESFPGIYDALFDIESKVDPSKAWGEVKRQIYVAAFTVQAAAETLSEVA

T1 sequence (O77564 whole entry): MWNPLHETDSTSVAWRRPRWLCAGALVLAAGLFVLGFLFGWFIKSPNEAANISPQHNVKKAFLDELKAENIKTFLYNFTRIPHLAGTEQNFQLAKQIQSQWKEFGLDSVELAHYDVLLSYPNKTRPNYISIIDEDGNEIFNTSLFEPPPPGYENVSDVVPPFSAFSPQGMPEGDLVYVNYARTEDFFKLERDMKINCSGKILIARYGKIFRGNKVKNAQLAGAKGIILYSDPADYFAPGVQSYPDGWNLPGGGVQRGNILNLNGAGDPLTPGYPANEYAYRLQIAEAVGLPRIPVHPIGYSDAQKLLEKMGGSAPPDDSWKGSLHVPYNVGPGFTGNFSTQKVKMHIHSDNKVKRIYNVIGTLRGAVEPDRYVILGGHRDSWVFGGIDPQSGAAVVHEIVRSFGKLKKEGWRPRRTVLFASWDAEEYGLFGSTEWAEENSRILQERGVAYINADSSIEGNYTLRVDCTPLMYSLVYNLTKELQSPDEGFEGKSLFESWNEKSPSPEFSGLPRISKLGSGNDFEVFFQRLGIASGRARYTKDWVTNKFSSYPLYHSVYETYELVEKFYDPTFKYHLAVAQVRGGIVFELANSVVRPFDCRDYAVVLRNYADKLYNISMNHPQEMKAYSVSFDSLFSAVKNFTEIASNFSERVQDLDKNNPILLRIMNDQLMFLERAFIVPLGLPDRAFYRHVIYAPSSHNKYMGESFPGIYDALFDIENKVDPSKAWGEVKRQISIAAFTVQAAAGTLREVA

Structure (SMILES) | IC50 [1] | single-concentration (80 μM) blocking of [177Lu]Lu-PSMA-617 binding, autoradiogr [2] | blocking of [177Lu]Lu-PSMA-617 binding with 80 μM 2-PMPA, autoradiography [3]
O=C(O)CC[C@H](NC(=O)N[C@@H](CCCCNC(=O)[C@H](Cc1ccc2ccccc2c1)NC(=O)[C@H]1CC[C@H](CNC(=O)CN2CCN(CC(=O)O)CCN(CC(=O)O)CCN(CC(=O)O)CC2)CC1)C(=O)O)C(=O)O [PSMA-617] | 6 ± 0.1 nM | – | –
O=C(O)CCC(CP(=O)(O)O)C(=O)O (stereo not drawn) [2-PMPA, 2-Phosphonomethyl pentanedioic acid] | – | Additional blocking with 2-PMPA, a highly potent PSMA-inhibitor, resulted in a reduced uptake of radioligand in the glandular areas | In contrast, LNCaP membrane pellets only showed a negligible non-specific bound fraction.
